The source made the active and inactive calls. The calls are words filed in the database; no cut-off is given here. Peptide text beside a SMILES is read from it. * marks the point of attachment. Cbz = O=C(OCc1ccccc1)*

From ChEMBL document CHEMBL5352441, “Modulation of FLT3-ITD and CDK9 in acute myeloid leukaemia cells by novel proteolysis targeting chimera (PROTAC)” (2022) come the findings set out here.

Test [1] deals with Receptor-type tyrosine-protein kinase FLT3 (Homo sapiens) (UniProt P36888). Briefly: Induction of FLT3 protein degradation in human MV4-11 cells at 0.2 uM incubated for 90 mins by immunoblot analysis. The test is classed as cell-based. (In general: A western blot detects proteins with antibodies after separation by electrophoresis.)
Test [2] has as its target Cyclin-dependent kinase 9 (Homo sapiens) (UniProt P50750). Briefly: Induction of CDK9 protein degradation in human MV4-11 cells at 0.2 uM incubated for 90 mins by immunoblot analysis. The test is classed as cell-based.
For test [3], the system named is MV4-11. The test is described as follows: Downregulation of MCL-1 gene expression in human MV4-11 cells at 0.1 uM incubated for 4 hrs by qRT-PCR analysis. Type of test: functional, cell-based. Background: In qPCR the cycle at which signal appears reflects the starting amount.
The subject of test [4] is MV4-11. Briefly: Downregulation of MEISI gene expression in human MV4-11 cells at 0.1 uM incubated for 4 hrs by qRT-PCR analysis. Type of test: functional, cell-based.
The subject of test [5] is MV4-11. Briefly: Downregulation of HOXA9 gene expression in human MV4-11 cells at 0.1 uM incubated for 4 hrs by qRT-PCR analysis. The test is classed as functional, cell-based.
The subject of test [6] is MV4-11. The test is described as follows: Upregulation of FLT3 total protein level in CRBN-deficient human MV4-11 cells at 0.1 uM incubated for 16 hrs by immunoblot analysis. Type of test: functional, cell-based.
Test [7] has as its system MV4-11. Briefly: Downregulation of Myc gene expression in human MV4-11 cells at 0.1 uM incubated for 4 hrs by qRT-PCR analysis. The test is classed as functional, cell-based.
Test [8] relates to MV4-11. The test is described as follows: Downregulation of Myb gene expression in human MV4-11 cells at 0.1 uM incubated for 4 hrs by qRT-PCR analysis. The test is classed as functional, cell-based.
The subject of test [9] is MV4-11. The test is described as follows: Upregulation of FLT3 total protein level in human MV4-11 cells harboring FLT3-ITD mutation at 0.1 uM incubated for 16 hrs by immunoblot analysis. Type of test: functional, cell-based.
For test [10], the system named is MV4-11. Briefly: Downregulation of Bcl-2 gene expression in human MV4-11 cells at 0.1 uM incubated for 4 hrs by qRT-PCR analysis. The test is classed as functional, cell-based.
Test [11] concerns MV4-11. Briefly: Effect on FLT3 protein level in human MV4-11 cells at 10 uM incubated for 90 mins by immunoblot analysis. The test is classed as functional, cell-based.
The target of test [12] is Receptor-type tyrosine-protein kinase FLT3 (Homo sapiens) (UniProt P36888). Briefly: Inhibition of FLT3 signalling pathway in human MV4-11 cells assessed as reduction in ERK1/2 phosphorylation at T202/Y204 residues at 10 uM incubated for 90 mins by immunoblot analysis. Type of test: cell-based.
Test [13] has the same target. The test is described as follows: Inhibition of FLT3 signalling pathway in human MV4-11 cells assessed as reduction in STAT5 phosphorylation at Y694 residue at 10 uM incubated for 90 mins by immunoblot analysis. The test is classed as cell-based.
In test [14] the test system is MV4-11. Briefly: Effect on CDK9 protein level in human MV4-11 cells at 10 uM incubated for 90 mins by immunoblot analysis. Type of test: functional, cell-based.
The subject of a further test is RS4-11. The test is described as follows: Antiproliferative activity against human RS4-11 cells assessed as cell growth inhibition incubated for 72 hrs by resazurin dye based fluorescence analysis. The test is classed as functional. (Alamar Blue is a resazurin reagent that responds to reducing activity.)
For test [15], the target named is Receptor-type tyrosine-protein kinase FLT3 (Homo sapiens) (UniProt P36888). The test is described as follows: Inhibition of human FLT3 assessed as residual activity at 100 nM relative to control.
The test system of a further test is U-937. Briefly: Antiproliferative activity against human U-937 cells assessed as cell growth inhibition incubated for 72 hrs by resazurin dye based fluorescence analysis. The test is classed as functional.
Test [16] has as its system MV4-11. Briefly: Antiproliferative activity against human MV4-11 cells harboring FLT3-ITD mutation assessed as cell growth inhibition incubated for 72 hrs by resazurin dye based fluorescence analysis. The test is classed as functional.
The subject of the next test is Kasumi 1. Briefly: Antiproliferative activity against human Kasumi 1 cells assessed as cell growth inhibition incubated for 72 hrs by resazurin dye based fluorescence analysis. Type of test: functional.
Test [17] has as its system MV4-11. Briefly: Antiproliferative activity against CRBN-deficient human MV4-11 cells assessed as cell growth inhibition incubated for 72 hrs by resazurin dye based fluorescence analysis. The test is classed as functional.
Test [18] addresses CDK9/cyclin T1 (Homo sapiens) (UniProt O60563+P50750). Briefly: Inhibition of human CDK9/Cyclin T1 assessed as residual activity at 100 nM relative to control. The test is classed as protein-complex assay.
Another test concerns THP-1. The test is described as follows: Antiproliferative activity against human THP-1 cells assessed as cell growth inhibition incubated for 72 hrs by resazurin dye based fluorescence analysis. Type of test: functional.
A further test deals with CCRF-CEM. Briefly: Antiproliferative activity against human CEM cells assessed as cell growth inhibition incubated for 72 hrs by resazurin dye based fluorescence analysis. The test is classed as functional.
For another test, the system named is HL-60. The test is described as follows: Antiproliferative activity against human HL-60 cells assessed as cell growth inhibition incubated for 72 hrs by resazurin dye based fluorescence analysis. The test is classed as functional.
The subject of another test is MOLM-13. Briefly: Antiproliferative activity against human MOLM-13 cells harboring FLT3-ITD mutation assessed as cell growth inhibition incubated for 72 hrs by resazurin dye based fluorescence analysis. The test is classed as functional.

Chain of Receptor-type tyrosine-protein kinase FLT3 (Homo sapiens) (P36888 whole entry): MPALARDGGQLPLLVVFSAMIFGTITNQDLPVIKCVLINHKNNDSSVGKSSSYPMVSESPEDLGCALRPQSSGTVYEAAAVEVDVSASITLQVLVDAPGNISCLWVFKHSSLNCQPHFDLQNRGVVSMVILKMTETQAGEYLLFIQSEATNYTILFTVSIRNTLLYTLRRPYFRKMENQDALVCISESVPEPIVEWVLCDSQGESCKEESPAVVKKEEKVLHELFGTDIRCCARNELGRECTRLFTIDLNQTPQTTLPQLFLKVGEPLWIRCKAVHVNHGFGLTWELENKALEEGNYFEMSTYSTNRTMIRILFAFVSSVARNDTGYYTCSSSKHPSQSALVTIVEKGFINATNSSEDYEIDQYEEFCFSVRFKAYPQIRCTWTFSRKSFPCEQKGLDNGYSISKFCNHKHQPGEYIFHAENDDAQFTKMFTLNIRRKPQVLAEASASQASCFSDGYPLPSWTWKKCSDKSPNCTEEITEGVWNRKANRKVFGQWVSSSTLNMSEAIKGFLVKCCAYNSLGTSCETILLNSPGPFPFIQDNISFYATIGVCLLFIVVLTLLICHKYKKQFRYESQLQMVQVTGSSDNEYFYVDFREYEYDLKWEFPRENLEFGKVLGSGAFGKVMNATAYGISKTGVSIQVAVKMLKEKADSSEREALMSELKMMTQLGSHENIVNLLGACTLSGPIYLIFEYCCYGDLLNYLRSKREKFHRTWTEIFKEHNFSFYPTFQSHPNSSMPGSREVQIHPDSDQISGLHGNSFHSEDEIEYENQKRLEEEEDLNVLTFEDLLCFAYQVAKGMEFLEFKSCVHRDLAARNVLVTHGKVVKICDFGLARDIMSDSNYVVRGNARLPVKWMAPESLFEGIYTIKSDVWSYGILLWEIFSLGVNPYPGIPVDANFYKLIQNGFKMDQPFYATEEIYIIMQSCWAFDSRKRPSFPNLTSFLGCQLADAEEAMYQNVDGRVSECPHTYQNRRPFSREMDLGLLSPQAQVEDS
Chain of Cyclin-dependent kinase 9 (Homo sapiens) (P50750 whole entry): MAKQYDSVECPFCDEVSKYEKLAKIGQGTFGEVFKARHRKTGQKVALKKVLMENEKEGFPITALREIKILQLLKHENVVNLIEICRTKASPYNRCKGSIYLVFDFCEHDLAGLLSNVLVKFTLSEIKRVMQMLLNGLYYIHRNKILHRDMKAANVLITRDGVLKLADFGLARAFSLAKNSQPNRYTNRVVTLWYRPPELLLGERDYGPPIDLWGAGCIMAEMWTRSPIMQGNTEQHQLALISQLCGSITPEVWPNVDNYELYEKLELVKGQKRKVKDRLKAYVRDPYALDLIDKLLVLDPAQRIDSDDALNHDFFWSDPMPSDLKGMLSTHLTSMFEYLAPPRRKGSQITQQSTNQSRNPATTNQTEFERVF

`CC(C)C[C@@H](C=O)NC(=O)[C@H](CC(C)C)NC(=O)[C@H](CC(C)C)NC(=O)OCc1ccccc1` (Cbz-Leu-Leu-Leu-aldehyde): the outcome in test [1] and in test [2] was inactive.

As to `CNC(=O)c1cc(Oc2ccc(NC(=O)Nc3ccc(Cl)c(C(F)(F)F)c3)cc2)ccn1`, the result in the test on MV4-11 [3], with MV4-11 [4], in the test with MV4-11 [5], in the test on MV4-11 [7], in the test on MV4-11 [8] and with MV4-11 [10] was inactive. For the same molecule, the result in the test on MV4-11 [6] and with MV4-11 [9] was Active.

Turning to `O=C1CCC(N2C(=O)c3cccc(O)c3C2=O)C(=O)N1` (stereo not drawn), the outcome with MV4-11 [11] and in the test with MV4-11 [14] was inactive. Also, the inhibition entry in test [12] and in [13] was “inactive” each time.

For orientation: GI50 means the concentration giving 50% growth inhibition. As to `CCN1CCN(c2ccc(Nc3nc(NC4CCC(N)CC4)nc4c3ncn4C3CCCC3)cc2)CC1` (stereo not drawn), the GI50 was 295 nM with RS4-11; 695 nM with U-937; 9 nM with MV4-11 [16]; 534 nM in the test with Kasumi 1; 8 nM in the test on MV4-11 [17]; 681 nM in the test with THP-1. Also, the GI50 in the test with CCRF-CEM stood at 1280 nM; in the test on HL-60, 1520 nM; in the test on MOLM-13, 8 nM. In addition, the Activity in [15] worked out at 2%; in test [18], 3%.

As to `CC(C)(C)c1cc(NC(=O)Nc2ccc(-c3cn4c(n3)sc3cc(OCCN5CCOCC5)ccc34)cc2)no1`, the result in the test with MV4-11 [3], with MV4-11 [4], in the test on MV4-11 [5], with MV4-11 [7], in the test with MV4-11 [8] and in the test on MV4-11 [10] was inactive. The outcome in the test on MV4-11 [6] and in the test on MV4-11 [9] was Active.
